Laboratory results as given in the Kinase Knowledgebase extract (Sharma et al. 2016).

Assays:
CDK2 (human) [1] = target: CDK2 (human) (UniProt P24941); experiment: Enzyme Assay
CDK2 (human) [2] = target: CDK2 (human) (UniProt P24941); experiment: Cell-Based Assay

| SMILES | IC50 (CDK2 (human) [1]) [µM] | IC50 (CDK2 (human) [2]; mda-mb-435) [µM] | IC50 (CDK2 (human) [2]; rko) [µM] |
| --- | --- | --- | --- |
| O=C1Nc2ccc(F)c3c([S+]([O-])CCO)cc(-c4ccc[nH]4)c1c23 (stereo not given) | – | – | ≤ 10 |
| O=C1Nc2ccc(F)c3ccc(-c4ccc[nH]4)c1c23 | ≤ 10 | – | – |
| O=C1Nc2ccc(F)c3c(N4CCC(O)CC4)cc(-c4ccc[nH]4)c1c23 | ≤ 10 | – | – |
| CCN(CC)CCNc1cc(-c2ccc[nH]2)c2c3c(ccc(F)c13)NC2=O | ≤ 10 | – | – |
| NCCCNc1cc(-c2ccc[nH]2)c2c3c(ccc(F)c13)NC2=O | ≤ 10 | – | – |
| O=C1Nc2ccc(F)c3c(N4CCNCC4)cc(-c4ccc[nH]4)c1c23 | ≤ 10 | – | – |
| Cc1c[nH]c(-c2cc(SCCN)c3c(F)ccc4c3c2C(=O)N4)c1C | ≤ 10 | – | – |
| COc1cc(-c2ccc[nH]2)c2c3c(ccc(F)c13)NC2=O | ≤ 10 | – | – |
| CC(C)(N)CNc1cc(-c2ccc[nH]2)c2c3c(ccc(F)c13)NC2=O | ≤ 10 | – | – |
| O=C1Nc2ccc(F)c3c(N4CCCC(CO)C4)cc(-c4ccc[nH]4)c1c23 (stereo not given) | ≤ 10 | ≤ 10 | ≤ 10 |
| O=C1Nc2ccc(F)c3c(OCCO)cc(-c4ccc[nH]4)c1c23 | ≤ 10 | – | – |
| O=C1Nc2ccc(F)c3c2C1=C(c1ccc[nH]1)CC3 | ≤ 10 | – | – |
| NCC[S+]([O-])c1cc(-c2ccc[nH]2)c2c3c(ccc(F)c13)NC2=O (stereo not given) | ≤ 10 | ≤ 10 | ≤ 10 |

Results, then the compound that gave them:

| IC50 (CDK2 (human) [1]) [µM] | IC50 (CDK2 (human) [2]; mda-mb-435) [µM] | IC50 (CDK2 (human) [2]; rko) [µM] | SMILES |
| --- | --- | --- | --- |
| ≤ 10 | – | – | O=C1Nc2ccc(F)c3c(NCCO)cc(-c4ccc[nH]4)c1c23 |
| ≤ 10 | – | – | O=C1Nc2ccc(F)c3c(N4CC[C@@H](O)C4)cc(-c4ccc[nH]4)c1c23 |
| ≤ 10 | – | – | O=C1Nc2ccc(F)c3c(SCCO)cc(-c4ccc[nH]4)c1c23 |
| ≤ 10 | – | – | NCCOc1cc(-c2ccc[nH]2)c2c3c(ccc(F)c13)NC2=O |
| ≤ 10 | – | – | CCc1cc(-c2ccc[nH]2)c2c3c(ccc(F)c13)NC2=O |
| ≤ 10 | – | – | O=C1Nc2ccc(F)c3c(S(=O)(=O)CCO)cc(-c4ccc[nH]4)c1c23 |
| ≤ 10 | ≤ 10 | ≤ 10 | O=C1Nc2ccc(F)c3c(N4CCCC(O)C4)cc(-c4ccc[nH]4)c1c23 (stereo not given) |
| ≤ 10 | – | – | NCCS(=O)(=O)c1cc(-c2ccc[nH]2)c2c3c(ccc(F)c13)NC2=O |
| ≤ 10 | – | – | CCC(C)c1cc(-c2ccc[nH]2)c2c3c(ccc(F)c13)NC2=O (stereo not given) |
| ≤ 10 | – | – | NCCSc1cc(-c2ccc[nH]2)c2c3c(ccc(F)c13)NC2=O |
| ≤ 10 | – | – | CCOc1cc(-c2ccc[nH]2)c2c3c(ccc(F)c13)NC2=O |
| ≤ 10 | – | – | O=C1Nc2ccc(F)c3c(OCCCO)cc(-c4ccc[nH]4)c1c23 |
| ≤ 10 | – | – | O=C1Nc2ccc(F)c3c(N4CCNC4=O)cc(-c4ccc[nH]4)c1c23 |
| ≤ 10 | – | – | Cc1cc(-c2ccc[nH]2)c2c3c(ccc(F)c13)NC2=O |
| ≤ 10 | – | – | CC(=O)NCCNc1cc(-c2ccc[nH]2)c2c3c(ccc(F)c13)NC2=O |
| ≤ 10 | – | – | O=C1Nc2ccc(F)c3c(N4CCOCC4)cc(-c4ccc[nH]4)c1c23 |
